Here are results for three compounds from patent EP2444086A1, “Combinations comprising DHODH inhibitors and COX inhibitors” (Almirall, S.A., priority 2010, dated 2012).

The test system of the assay is HaCaT cells. The assay is described as follows: Proliferation assay (ATP-lite bioluminescent assay of intracellular ATP content). To be noted: Homo sapiens, 144 h; inhibition of proliferation of HaCaT cells, 6 days incubation, 10% FBS, absolute IC50, mean of 3 experiments. The format is cell-based. How it is done: Human adult low calcium high temperature (HaCaT) cells are spontaneously transformed human keratinocytes that have the characteristics of basal epidermal keratinocytes (Boukamp et at. J Cell Biol 106:761-771, 1988) This line can be used as in vitro model for highly proliferative epidermis (Ockenfels et at., Arch Dermatol Res 287:301-309, 1995)
HaCaT cells exponentially growing were plated in clear bottom, white walled, 96-well plates at a density of 5000 cells/well in 100 µL Dulbecco's modified Eagle's medium (DMEM) containing 1% fetal bovine serum (FBS), and incubated overnight at 37 °C, 5% CO2. Next day, media in each well was replaced with 50 µL growth medium containing 10% FBS. 50 µL of compounds at two-fold the desired concentration in growth medium containing 2% dimethyl sulfoxide (DMSO) were added to the wells. Six wells were replaced with fresh 100 µL of medium containing 1% FBS and 1% DMSO and were used as a control of no proliferation. Six other wells were replaced with fresh 100 µL of medium containing 10% FBS and 1% DMSO and were used as a control of top proliferation. Each compound concentration was tested in triplicate and ranged from 100 µM to 0.4 µM in half-log serial dilutions. Plates were incubated at 37°C 5% CO2 for 6 consecutive days. On the day of the assay, media was removed and replaced with 100 µL of phosphate buffered saline (PBS). A bioluminescent assay was performed to assess the intracellular adenosine-5'-triphosphate (ATP) content following the manufacturer instructions (ATP-lite, Perkin Elmer, Belgium). Results were expressed as a % of inhibition of proliferation in relation to the top and bottom proliferation wells. Absolute IC50 corresponded to the concentration of compound that caused 50% inhibition of proliferation. Table 1 depicts the mean and the standard deviation of 3 experiments for each indicated compound/combination.

As for `COc1cccc(-c2cc(F)c(Nc3ncccc3C(=O)O)c(F)c2)c1` [Example 1, 2-(3,5-difluoro-3'-methoxybiphenyl-4-ylamino)nicotinic acid], the IC50 is 580 nM. As for `O=C(O)c1cc(C2CC2)ccc1Nc1cnc(-c2c(F)cccc2F)nc1` [Example 2, 5-cyclopropyl-2-(2-(2,6-difluorophenyl)pyrimidin-5-ylamino)benzoic acid], the IC50 is 260 nM. The result for `CC(O)=C(C#N)C(=O)Nc1ccc(C(F)(F)F)cc1` [Example 3, 2-Butenamide, 2-cyano-3-hydroxy-N-[4-(trifluoromethyl)phenyl]-, reference compound] reads 15200 nM.
